Laboratory results taken from the supplement of paper PMC11061612.

Columns and labels:
Assay in all cases: Bliss excess, mean over the matrix (fraction); higher = more synergy
Saos-2 (Osteosarcoma) = system: Saos-2 (Osteosarcoma)
Method in brief: (§1)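 Bliss excess equals the observed combination effect minus the expected value EA + EB − EA·EB, where EA and EB are the effects of each agent alone. Combination Emax is the second-highest inhibition within the matrix. Inhibition was scaled from CellTiter-Glo 2.0 luminescence, with 0 set by vehicle wells and 1 by blank wells, after 72 hours of two-drug dosing of cells plated in 1536-well plates.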

SK-MEL-1 (Melanoma) = system: SK-MEL-1 (Melanoma)
Method in brief: as §1

H4 (Low Grade Glioma) = system: H4 (Low Grade Glioma)
Method in brief: as §1

[1] = system: SLVL (B-Cell Non-Hodgkin's Lymphoma)
Method in brief: as §1

EW-22 (Ewing's Sarcoma) = system: EW-22 (Ewing's Sarcoma)
Method in brief: as §1

[2] = system: SK-LMS-1 (Other Solid Carcinomas)
Method in brief: as §1

[3] = system: BICR78 (Oral Cavity Carcinoma)
Method in brief: as §1

[4] = system: SW48 (Colorectal Carcinoma)
Method in brief: as §1

MSTO-211H (Mesothelioma) = system: MSTO-211H (Mesothelioma)
Method in brief: as §1

[5] = system: D-283MED (Other Solid Carcinomas)
Method in brief: as §1

HCC38 (Breast Carcinoma) = system: HCC38 (Breast Carcinoma)
Method in brief: as §1

[6] = system: WSU-DLCL2 (B-Cell Non-Hodgkin's Lymphoma)
Method in brief: as §1

[7] = system: FU-OV-1 (Ovarian Carcinoma)
Method in brief: as §1

[8] = system: NOMO-1 (Acute Myeloid Leukemia)
Method in brief: as §1

Row | SMILES | Bliss excess (Saos-2 (Osteosarcoma)) | Bliss excess (SK-MEL-1 (Melanoma)) | Bliss excess (H4 (Low Grade Glioma)) | Bliss excess [1] | Bliss excess (EW-22 (Ewing's Sarcoma)) | Bliss excess [2] | Bliss excess [3] | Bliss excess [4] | Bliss excess (MSTO-211H (Mesothelioma)) | Bliss excess [5] | Bliss excess (HCC38 (Breast Carcinoma)) | Bliss excess [6] | Bliss excess [7] | Bliss excess [8]
1 | C=CCn1c(=O)c2cnc(Nc3ccc(N4CCN(C)CC4)cc3)nc2n1-c1cccc(C(C)(C)O)n1 [AZD1775] + CCc1c2c(nc3ccc(O)cc13)-c1cc3c(c(=O)n1C2)COC(=O)[C@]3(O)CC [SN-38] (first compound max 1 µM, partner max 0.3 µM) | -0.0514 | 0.0154 | 0.015 | -0.0701 | -0.0286 | -0.0441 | -0.0403 | -0.0052 | -0.0619 | -0.0258 | -0.0765 | 0.003 | -0.102 | -0.0208
2 | C=CCn1c(=O)c2cnc(Nc3ccc(N4CCN(C)CC4)cc3)nc2n1-c1cccc(C(C)(C)O)n1 [AZD1775] + Nc1ccn([C@@H]2O[C@H](CO)[C@@H](O)C2(F)F)c(=O)n1 [Gemcitabine] (first compound max 1 µM, partner max 0.3 µM) | -0.0728 | -0.0469 | -0.0148 | -0.0357 | -0.0431 | -0.027 | 0.0412 | 0.0828 | 0.0226 | 0.0097 | 0.0214 | 0.0694 | -0.0741 | 0.0485
3 | CN(CCO)CC[C@H](CSc1ccccc1)Nc1ccc(S(=O)(=O)NC(=O)c2ccc(N3CCC([C@@H](O)c4ccccc4-c4ccc(Cl)cc4)CC3)cc2)cc1S(=O)(=O)C(F)(F)F [AZD4320] + CC(=O)O[C@H]1C(=O)[C@@]2(C)[C@H]([C@H](OC(=O)c3ccccc3)[C@]3(O)C[C@H](OC(=O)[C@H](O)[C@@H](NC(=O)c4ccccc4)c4ccccc4)C(C)=C1C3(C)C)[C@]1(OC(C)=O)CO[C@@H]1C[C@@H]2O [Paclitaxel] (first compound max 1 µM, 7x7, partner max 3 µM) | 0.0937 | 0.0354 | -0.0229 | 0.032 | 0.0397 | 0.0954 | 0.0354 | -0.003 | 0.105 | -0.0081 | 0.0324 | -0.0101 | 0.0924 | -0.0101
4 | CN(CCO)CC[C@H](CSc1ccccc1)Nc1ccc(S(=O)(=O)NC(=O)c2ccc(N3CCC([C@@H](O)c4ccccc4-c4ccc(Cl)cc4)CC3)cc2)cc1S(=O)(=O)C(F)(F)F [AZD4320] + CS(=O)(=O)CCNCc1ccc(-c2ccc3ncnc(Nc4ccc(OCc5cccc(F)c5)c(Cl)c4)c3c2)o1 [Lapatinib] (first compound max 1 µM, 7x7, partner max 10 µM) | 0.083 | -0.0444 | -0.0113 | 0.0675 | 0.0967 | 0.0357 | 0.0251 | 0.14 | 0.0275 | 0.013 | 0.0173 | 0.203 | -0.0203 | 0.0709
5 | Cc1c2c(nn1C)CSCc1cc(n(C)n1)CSc1cc(c3ccccc3c1)OCCCc1c(C(=O)O)n(C)c3c-2c(Cl)ccc13 [AZD5991] + CS(=O)(=O)CCNCc1ccc(-c2ccc3ncnc(Nc4ccc(OCc5cccc(F)c5)c(Cl)c4)c3c2)o1 [Lapatinib] (first compound max 1 µM, 7x7, partner max 10 µM) | -0.0071 | 0.026 | 0.0407 | 0.0502 | -0.0028 | -0.0101 | -0.0065 | 0.0213 | 0.0121 | – | -0.0638 | 0.0601 | -0.0179 | -0.0873
6 | C[C@@H]1COCCN1c1cc(C2([S@](C)(=N)=O)CC2)nc(-c2ccnc3[nH]ccc23)n1 [AZD6738] + C1CC(C1)(C(=O)[O-])C(=O)[O-].N.N.[Pt+2] [Carboplatin] (first compound max 10 µM, 7x7, partner max 10 µM) | -0.0302 | -0.048 | 0.0025 | -0.0419 | -0.0301 | -0.032 | -0.0459 | -0.0577 | -0.0319 | – | -0.0516 | 0.0217 | -0.0576 | -0.0037
7 | N#Cc1cnc(Nc2cc(NC[C@H]3CNCCO3)c(C(F)(F)F)cn2)cn1 [SRA737] + CCc1c2c(nc3ccc(O)cc13)-c1cc3c(c(=O)n1C2)COC(=O)[C@]3(O)CC [SN-38] (first compound max 10 µM, 7x7, partner max 0.3 µM) | -0.0303 | – | -0.0029 | -0.0909 | -0.0592 | -0.0248 | -0.0015 | -0.0411 | -0.024 | -0.0395 | -0.049 | 0.0055 | -0.0076 | -0.039
